One test has as its system C57BL/6J mice. In words: Oral glucose tolerance test. Format: in vivo. The conditions noted are these: male C57BL/6J mice, fasted overnight; oral gavage 10 mg/kg; solvent 0.5% MC; glucose 3 g/kg orally 30 minutes after compound; area under the curve of blood glucose level relative to control group. On the procedure:
Commercially available mice (C57BL/6J mice; male; 8 to 12 weeks old when used; distributed by Charles River Laboratories Japan, Inc.) were used.
After acclimatization with freely feeding (FR-2, Funabashi Farm Co., Ltd.) for one week or more, the mice were fasted overnight and then used for the test. A 0.5% methylcellulose (Wako Pure Chemical Industries, Ltd.) solution (0.5% MC) containing a test compound at a concentration of 1 mg/ml and a mixed solution (PG:Tween) of propylene glycol (80 v/v %, Nacalai Tesque, Inc.) and Tween 80 (20 v/v %, Nacalai Tesque, Inc.) containing a test compound at a concentration of 2 mg/ml were prepared for administration to the mice. The prepared solution was administered by oral gavage to four or five mice in each group at a dose of 10 mg/kg as the test compound. For a control group, a 0.5% methylcellulose solution (dose: 10 ml/kg) or a mixed solution of propylene glycol and Tween 80 (dose: 5 ml/kg) was orally administered to mice. An oral glucose tolerance test was carried out by administering a glucose solution (Otsuka Glucose Solution 50%; Otsuka Pharmaceutical Factory, Inc.) orally at a dose of 3 g/kg to the mice 30 minutes after administration of the test compound.
Blood was collected from the tail vein of each mouse immediately before administration of the test compound (T0), […] after administration of the test compound (T1), and 30 minutes (T2) and 90 minutes (T3) after oral glucose loading. The blood glucose level was measured using a blood glucose level measuring apparatus (ACCU-CHEK Aviva; Roche Diagnostics, K.K.). The blood glucose level T1 was analyzed as a value obtained 30 minutes after administration of the compound and immediately before glucose loading. According to the following formula, the area under the curve of blood glucose level was calculated, and thereafter, the blood glucose lowering rate (%) was calculated as a value relative to the control group. The area under the curve of blood glucose level=[(blood glucose level T0+blood glucose level T1)×30]÷2+[(blood glucose level T1+blood glucose level T2)×30]÷2+[(blood glucose level T2+blood glucose level T3)×60]÷2 Blood glucose lowering rate(%)=[1−(the area under the curve of blood glucose level for the test compound group/the area under the curve of blood glucose level for the control group)]×100
Take `COCCOc1ccc(-c2ccc(OC)c(C3C4=C(CC(C)(C)CC4=O)OC4=C3C(=O)CC(C)(C)C4)c2C)nc1C(=O)O` [Example 29, 3-(2-Methoxyethoxy)-6-[4-methoxy-2-methyl-3-(3,3,6,6-tetramethyl-1,8-dioxo-2,3,4,5,6,7,8,9-octahydro-1H-xanthen-9-yl)phenyl]pyridine-2-carboxylic acid]: the “Blood glucose lowering rate (%)” value worked out at 32%. With `COc1ccc(-c2ccc(C)c(C(=O)O)n2)cc1C1C2=C(CC(C)(C)CC2=O)OC2=C1C(=O)CC(C)(C)C2` [Example 30, 6-[4-Methoxy-3-(3,3,6,6-tetramethyl-1,8-dioxo-2,3,4,5,6,7,8,9-octahydro-1H-xanthen-9-yl)phenyl]-3-methylpyridine-2-carboxylic acid], the “Blood glucose lowering rate (%)” value was 55%. On to `COc1ccc(-c2ccc(C)c(C(=O)NS(C)(=O)=O)n2)cc1C1C2=C(CC(C)(C)CC2=O)OC2=C1C(=O)CC(C)(C)C2` [Example 31, 6-[4-Methoxy-3-(3,3,6,6-tetramethyl-1,8-dioxo-2,3,4,5,6,7,8,9-octahydro-1H-xanthen-9-yl)phenyl]-3-methyl-N-(methylsulfonyl)pyridine-2-carboxamide], for which the “Blood glucose lowering rate (%)” value is listed as 42%.

For `COc1ccc(-c2cc(C)cc(C(=O)O)n2)c(C)c1C1C2=C(CC(C)(C)CC2=O)OC2=C1C(=O)CC(C)(C)C2` [Example 32, 6-[4-Methoxy-2-methyl-3-(3,3,6,6-tetramethyl-1,8-dioxo-2,3,4,5,6,7,8,9-octahydro-1H-xanthen-9-yl)phenyl]-4-methylpyridine-2-carboxylic acid], the “Blood glucose lowering rate (%)” value is 59%.

Regarding `COc1ccc(-c2nc(C(=O)O)ccc2C)c(C)c1C1C2=C(CC(C)(C)CC2=O)OC2=C1C(=O)CC(C)(C)C2` [Example 34, 6-[4-Methoxy-2-methyl-3-(3,3,6,6-tetramethyl-1,8-dioxo-2,3,4,5,6,7,8,9-octahydro-1H-xanthen-9-yl)phenyl]-5-methylpyridine-2-carboxylic acid], the “Blood glucose lowering rate (%)” value worked out at 58%.

In the case of `COc1ccc(-c2ccc(C)c(C(=O)NS(C)(=O)=O)n2)cc1C1C2=C(CC(C)(C)CC2=O)OC2=C1C(=O)CC(C)(C)C2.[K]` [Example 35, 6-[4-Methoxy-3-(3,3,6,6-tetramethyl-1,8-dioxo-2,3,4,5,6,7,8,9-octahydro-1H-xanthen-9-yl)phenyl]-3-methyl-N-(methylsulfonyl)pyridine-2-carboxamide potassium salt], the “Blood glucose lowering rate (%)” value is 52%.

With `COc1ccc(-c2cc(C)cc(C(=O)NS(C)(=O)=O)n2)c(C)c1C1C2=C(CC(C)(C)CC2=O)OC2=C1C(=O)CC(C)(C)C2` [Example 40, 6-[4-Methoxy-2-methyl-3-(3,3,6,6-tetramethyl-1,8-dioxo-2,3,4,5,6,7,8,9-octahydro-1H-xanthen-9-yl)phenyl]-4-methyl-N-(methylsulfonyl)pyridine-2-carboxamide], the “Blood glucose lowering rate (%)” value was 38%. In the case of `CC(C)(C)N.COc1ccc(-c2ccc(C)c(C(=O)NS(C)(=O)=O)n2)c(C)c1C1C2=C(CC(C)(C)CC2=O)OC2=C1C(=O)CC(C)(C)C2` [Example 41, 6-[4-Methoxy-2-methyl-3-(3,3,6,6-tetramethyl-1,8-dioxo-2,3,4,5,6,7,8,9-octahydro-1H-xanthen-9-yl)phenyl]-3-methyl-N-(methylsulfonyl)pyridine-2-carboxamide 2-methylpropan-2-amine salt], the “Blood glucose lowering rate (%)” value is 44%. On to `CC(C)(C)N.COc1ccc(-c2cc(C)cc(C(=O)NS(C)(=O)=O)n2)c(C)c1C1C2=C(CC(C)(C)CC2=O)OC2=C1C(=O)CC(C)(C)C2` [Example 42, 6-[4-Methoxy-2-methyl-3-(3,3,6,6-tetramethyl-1,8-dioxo-2,3,4,5,6,7,8,9-octahydro-1H-xanthen-9-yl)phenyl]-4-methyl-N-(methylsulfonyl)pyridine-2-carboxamide 2-methylpropan-2-amine salt], for which the “Blood glucose lowering rate (%)” value is 44%.

Turning to `COc1ccc(-c2cc(C)c(C)c(C(=O)O)n2)c(C)c1C1C2=C(CC(C)(C)CC2=O)OC2=C1C(=O)CC(C)(C)C2` [Example 43, 6-[4-Methoxy-2-methyl-3-(3,3,6,6-tetramethyl-1,8-dioxo-2,3,4,5,6,7,8,9-octahydro-1H-xanthen-9-yl)phenyl]-3,4-dimethylpyridine-2-carboxylic acid], the “Blood glucose lowering rate (%)” value worked out at 60%. Turning to `COc1ccc(-c2cc(C)c(C)c(C(=O)NS(C)(=O)=O)n2)c(C)c1C1C2=C(CC(C)(C)CC2=O)OC2=C1C(=O)CC(C)(C)C2` [Example 44, 6-[4-Methoxy-2-methyl-3-(3,3,6,6-tetramethyl-1,8-dioxo-2,3,4,5,6,7,8,9-octahydro-1H-xanthen-9-yl)phenyl]-3,4-dimethyl-N-(methylsulfonyl)pyridine-2-carboxamide], the “Blood glucose lowering rate (%)” value is given as 44%.

`CCc1ccc(-c2ccc(OC)c(C3C4=C(CC(C)(C)CC4=O)OC4=C3C(=O)CC(C)(C)C4)c2)nc1C(=O)O` [Example 45, 3-Ethyl-6-[4-methoxy-3-(3,3,6,6-tetramethyl-1,8-dioxo-2,3,4,5,6,7,8,9-octahydro-1H-xanthen-9-yl)phenyl]pyridine-2-carboxylic acid]: the “Blood glucose lowering rate (%)” value worked out at 42%. Regarding `CCc1ccc(-c2ccc(OC)c(C3C4=C(CC(C)(C)CC4=O)OC4=C3C(=O)CC(C)(C)C4)c2)nc1C(=O)NS(C)(=O)=O` [Example 46, 3-Ethyl-6-[4-methoxy-3-(3,3,6,6-tetramethyl-1,8-dioxo-2,3,4,5,6,7,8,9-octahydro-1H-xanthen-9-yl)phenyl]-N-(methylsulfonyl)pyridine-2-carboxamide], the “Blood glucose lowering rate (%)” value is 47%. On the same count and under the same terms, to `COc1ccc(-c2cc3c(c(C(=O)O)n2)CCCC3)c(C)c1C1C2=C(CC(C)(C)CC2=O)OC2=C1C(=O)CC(C)(C)C2` [Example 47, 3-[4-Methoxy-2-methyl-3-(3,3,6,6-tetramethyl-1,8-dioxo-2,3,4,5,6,7,8,9-octahydro-1H-xanthen-9-yl)phenyl]-5,6,7,8-tetrahydroisoquinoline-1-carboxylic acid] belongs 56%; to `COc1ccc(-c2ccc(N)c(C(=O)O)n2)c(C)c1C1C2=C(CC(C)(C)CC2=O)OC2=C1C(=O)CC(C)(C)C2` [Example 48, 3-Amino-6-[4-methoxy-2-methyl-3-(3,3,6,6-tetramethyl-1,8-dioxo-2,3,4,5,6,7,8,9-octahydro-1H-xanthen-9-yl)phenyl]pyridine-2-carboxylic acid], 62%; to `COc1ccc(-c2ccc(N)c(C(=O)NS(C)(=O)=O)n2)c(C)c1C1C2=C(CC(C)(C)CC2=O)OC2=C1C(=O)CC(C)(C)C2` [Example 49, 3-Amino-6-[4-methoxy-2-methyl-3-(3,3,6,6-tetramethyl-1,8-dioxo-2,3,4,5,6,7,8,9-octahydro-1H-xanthen-9-yl)phenyl]-N-(methylsulfonyl)pyridine-2-carboxamide], 34%.

Still in this test, the particulars now being: male C57BL/6J mice, fasted overnight; oral gavage 10 mg/kg; solvent PG:Tween; glucose 3 g/kg orally 30 minutes after compound; area under the curve of blood glucose level relative to control group.
`CCOc1ccc(-c2ccc(OC)c(C3C4=C(CC(C)(C)CC4=O)OC4=C3C(=O)CC(C)(C)C4)c2C)nc1C(=O)O` [Example 28, 3-Ethoxy-6-[4-methoxy-2-methyl-3-(3,3,6,6-tetramethyl-1,8-dioxo-2,3,4,5,6,7,8,9-octahydro-1H-xanthen-9-yl)phenyl]pyridine-2-carboxylic acid]: the “Blood glucose lowering rate (%)” value is given as 60%.

Source of the values: patent US8975263B2, “Phenylxanthene derivatives” (Daiichi Sankyo Company, Limited, priority 2013, dated 2015).
